As a reminder, the pIC50 is −log10 of the IC50, conventionally taken in molar units. A lower pIC50 goes with a high IC50.

IC50 data for seven molecules are collected here from BindingDB's records for doi:10.3109/14756366.2013.823957 (National Tsing Hua University, 2014).

pIC50: −log10 of the molar value.

The assay deals with Cathepsin S (Homo sapiens, UniProt P25774). The experiment in a line: Cathepsin Activity Assay. The following applies: pH 6.5; 25 °C. As to the method:
A microplate-based screening procedure was used to study the effect of inhibition of re-Cat S, re-Cat L and re-Cat K on several compounds. The assays were performed in quadruplicates at 25 °C in a buffer containing 50 mM MES, pH 6.5, 2.5 mM EDTA and 1 mM DTT for re-Cat S, or 100 mM NaOAc, pH 5.5, 1 mM DTT and 2 mM EDTA for re-Cat L, or 50 mM MES, pH 5.5, 5 mM DTT and 2.5 mM EDTA for re-Cat K. Each of tested compounds at 100 nM was incubated with 50 nM re-Cat S, 31.25 pM re-Cat L or 10 nM re-Cat K at 37 °C for 10 min before initiating the reaction with the addition of 5 μM relevant substrate (Z-Phe-Arg-AMC for Cat L and Cat K, and Z-Val-Val-Arg-AMC for Cat S), respectively [Ward et al., J. Med. Chem., 45:5471-82]. Reactions in microplates were kept at 37 °C for another 30 min and then to collect the fluorescent signals from each well in microplates. E64 and 1% DMSO were applied as positive and solvent control, respectively. Fluorimetric assays were performed at 37 °C on a Perkin Elmer LS55 fluorescence spectrophotometer (Waltham, MA) with excitation at 370 nm and emission at 460 nm wavelengths. The inhibitory ability of a tested compound was determined by decreased fluorescence compared to DMSO control.

Cathepsin S, sequence (P25774 whole entry): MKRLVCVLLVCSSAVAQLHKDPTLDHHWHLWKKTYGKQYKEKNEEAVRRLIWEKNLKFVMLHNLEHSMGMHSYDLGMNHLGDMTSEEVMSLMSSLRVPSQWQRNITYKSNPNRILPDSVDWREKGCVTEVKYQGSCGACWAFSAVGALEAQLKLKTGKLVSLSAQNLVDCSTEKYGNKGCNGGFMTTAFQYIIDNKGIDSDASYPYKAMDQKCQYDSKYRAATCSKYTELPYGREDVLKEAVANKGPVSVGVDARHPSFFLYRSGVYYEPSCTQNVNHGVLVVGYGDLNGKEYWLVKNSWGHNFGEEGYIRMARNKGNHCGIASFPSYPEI

As for `CCOC(=O)CNC(=O)C(=O)C(COCc1ccccc1)NC(=O)C(CC1CCCCC1)NC(=O)c1cccc([N+](=O)[O-])c1` (stereo not drawn) [Cathepsin S inhibitor alpha-ketoamide, 6b], the pIC50 is 8.70.

`CCOC(=O)CNC(=O)C(=O)C(COCc1ccccc1)NC(=O)C(CC1CCCCC1)NC(=O)c1ccc(C(=O)OC)c(N)c1` (stereo not drawn) [Cathepsin S inhibitor alpha-ketoamide, 6p] gave a pIC50 of 8.24.

For the molecule `CC(C)(C)CC(C)(C)NC(=O)C(=O)C(COCc1ccccc1)NC(=O)C(CC1CCCCC1)NC(=O)N1CCOCC1` (stereo not drawn) [Cathepsin S inhibitor alpha-ketoamide, 6w], the pIC50 is 8.51.

As for `CCOC(=O)CNC(=O)C(=O)C(COCc1ccccc1)NC(=O)C(CC1CCCCC1)NC(=O)c1cccc2c1C(=O)c1ccccc1-2` (stereo not drawn) [Cathepsin S inhibitor alpha-ketoamide, 6r], the pIC50 was 8.06.

For the molecule `CCOC(=O)CNC(=O)C(=O)C(COCc1ccccc1)NC(=O)C(CC1CCCCC1)NC(=O)c1ccc(C(=O)OC)c(NC(=O)OC(C)(C)C)c1` (stereo not drawn) [Cathepsin S inhibitor alpha-ketoamide, 6n], the pIC50 is 7.31.

The molecule `CCOC(=O)CNC(=O)C(=O)C(COCc1ccccc1)NC(=O)C(CC1CCCCC1)NC(=O)c1cc(OC)ccc1[N+](=O)[O-]` (stereo not drawn) [Cathepsin S inhibitor alpha-ketoamide, 6e] gave a pIC50 of 8.51.

As to `CCOC(=O)CNC(=O)C(=O)C(COCc1ccccc1)NC(=O)C(CC1CCCCC1)NC(=O)N1CCOCC1` (stereo not drawn) [Cathepsin S inhibitor alpha-ketoamide, 6a], the pIC50 is 8.36.
